Legend:
[1] = target: T1, CYP1A1 (Homo sapiens, UniProt P04798); assay: Enzyme inhibition assay, CYP1A1; type: in vitro ADME; design: purchased Xenotech LLC; details: Recombinant CYP1A1; phenacetin-O-deethylation
T1 sequence (P04798 1-512): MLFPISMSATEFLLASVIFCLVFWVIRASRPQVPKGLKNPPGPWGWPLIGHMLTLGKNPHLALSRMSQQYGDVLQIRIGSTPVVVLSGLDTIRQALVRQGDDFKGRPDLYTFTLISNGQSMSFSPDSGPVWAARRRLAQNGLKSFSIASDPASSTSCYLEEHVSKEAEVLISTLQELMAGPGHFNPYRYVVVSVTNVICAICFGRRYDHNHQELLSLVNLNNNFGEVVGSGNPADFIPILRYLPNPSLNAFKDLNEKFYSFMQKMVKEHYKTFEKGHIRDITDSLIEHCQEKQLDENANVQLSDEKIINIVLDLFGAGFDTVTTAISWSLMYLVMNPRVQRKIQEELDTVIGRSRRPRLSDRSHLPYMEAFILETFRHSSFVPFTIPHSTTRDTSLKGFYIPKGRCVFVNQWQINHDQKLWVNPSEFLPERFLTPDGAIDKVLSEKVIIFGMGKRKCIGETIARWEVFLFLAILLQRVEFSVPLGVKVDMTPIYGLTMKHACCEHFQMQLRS

[2] = target: rUGT1A1 (Homo sapiens, UniProt P22309); assay: Reaction phenotyping, rUGT1A1; details: rUGT1A1, SN38 (0.5 µM)
[3] = target: T2, UGT1A4 (Homo sapiens, UniProt P22310); assay: Enzyme inhibition assay, UGT1A4
T2 sequence (P22310 29-534): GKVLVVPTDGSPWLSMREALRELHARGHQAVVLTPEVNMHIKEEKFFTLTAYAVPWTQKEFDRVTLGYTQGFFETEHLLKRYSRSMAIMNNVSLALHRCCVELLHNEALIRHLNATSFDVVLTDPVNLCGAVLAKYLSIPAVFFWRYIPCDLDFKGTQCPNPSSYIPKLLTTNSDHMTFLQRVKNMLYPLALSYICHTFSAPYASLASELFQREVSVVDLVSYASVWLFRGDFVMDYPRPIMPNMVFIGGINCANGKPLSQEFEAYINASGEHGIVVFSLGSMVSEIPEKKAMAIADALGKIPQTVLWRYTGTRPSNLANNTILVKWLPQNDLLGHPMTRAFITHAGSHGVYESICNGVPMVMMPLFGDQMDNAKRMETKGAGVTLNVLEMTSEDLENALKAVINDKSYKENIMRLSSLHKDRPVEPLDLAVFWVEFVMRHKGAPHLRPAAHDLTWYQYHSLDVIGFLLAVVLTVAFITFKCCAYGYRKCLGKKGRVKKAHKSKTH

[4] = Reaction phenotyping, HLM with NADPH; type: in vitro ADME, human; details: human, human liver microsomes, pH 7.4; HLM (Phase 1), Midazolam (1 µM); read-out: Known Substrate (% Remaining at 60 min)
[5] = target: CYP3A4 (Homo sapiens, UniProt P08684); assay: Reaction phenotyping, rCYP3A4; details: recombinant enzyme, pH 7.4
[6] = target: T3, UGT2B7 (Homo sapiens, UniProt P16662); assay: Enzyme inhibition assay, UGT2B7; type: in vitro ADME; design: from tissue; details: HLM; UGT2B7 zidovudine glucuronidation
T3 sequence (P16662 24-529): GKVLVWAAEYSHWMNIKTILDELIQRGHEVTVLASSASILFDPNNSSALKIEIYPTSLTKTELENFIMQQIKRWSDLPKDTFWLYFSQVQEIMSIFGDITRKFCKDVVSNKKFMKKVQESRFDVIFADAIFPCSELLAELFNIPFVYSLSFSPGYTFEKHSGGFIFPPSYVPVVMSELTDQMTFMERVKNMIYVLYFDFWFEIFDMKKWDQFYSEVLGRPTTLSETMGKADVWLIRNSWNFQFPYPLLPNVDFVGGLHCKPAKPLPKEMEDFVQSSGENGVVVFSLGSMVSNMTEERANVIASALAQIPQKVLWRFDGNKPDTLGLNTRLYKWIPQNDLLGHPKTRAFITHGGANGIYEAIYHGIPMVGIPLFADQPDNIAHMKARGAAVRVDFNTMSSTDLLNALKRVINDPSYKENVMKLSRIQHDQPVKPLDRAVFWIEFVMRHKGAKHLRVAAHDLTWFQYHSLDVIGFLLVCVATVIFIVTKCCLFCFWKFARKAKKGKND

[7] = target: T4, UGT1A3 (Homo sapiens, UniProt P35503); assay: Reaction phenotyping, rUGT1A3; details: recombinant UGT1A3, pH 7.4
T4 sequence (P35503 29-534): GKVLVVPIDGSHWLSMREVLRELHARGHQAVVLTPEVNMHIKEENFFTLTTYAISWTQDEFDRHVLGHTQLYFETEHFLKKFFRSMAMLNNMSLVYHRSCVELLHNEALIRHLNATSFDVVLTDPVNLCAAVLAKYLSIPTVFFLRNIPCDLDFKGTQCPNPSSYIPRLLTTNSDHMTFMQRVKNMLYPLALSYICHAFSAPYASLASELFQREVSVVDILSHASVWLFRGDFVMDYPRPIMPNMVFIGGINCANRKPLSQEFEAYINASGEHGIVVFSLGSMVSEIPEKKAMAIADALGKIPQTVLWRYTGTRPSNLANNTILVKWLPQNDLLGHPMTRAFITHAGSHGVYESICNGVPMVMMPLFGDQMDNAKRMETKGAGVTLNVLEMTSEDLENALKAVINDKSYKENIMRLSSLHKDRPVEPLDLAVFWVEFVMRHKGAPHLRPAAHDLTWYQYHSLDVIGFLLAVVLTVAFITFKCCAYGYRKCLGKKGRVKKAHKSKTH

[8] = target: T5, UGT1A1 (Homo sapiens, UniProt P22309); assay: Enzyme inhibition assay, UGT1A1; type: in vitro ADME; details: HLM; UGT1A1 SN38 glucuronidation; read-out: IC50
T5 construct: from tissue
T5 sequence (P22309 26-533): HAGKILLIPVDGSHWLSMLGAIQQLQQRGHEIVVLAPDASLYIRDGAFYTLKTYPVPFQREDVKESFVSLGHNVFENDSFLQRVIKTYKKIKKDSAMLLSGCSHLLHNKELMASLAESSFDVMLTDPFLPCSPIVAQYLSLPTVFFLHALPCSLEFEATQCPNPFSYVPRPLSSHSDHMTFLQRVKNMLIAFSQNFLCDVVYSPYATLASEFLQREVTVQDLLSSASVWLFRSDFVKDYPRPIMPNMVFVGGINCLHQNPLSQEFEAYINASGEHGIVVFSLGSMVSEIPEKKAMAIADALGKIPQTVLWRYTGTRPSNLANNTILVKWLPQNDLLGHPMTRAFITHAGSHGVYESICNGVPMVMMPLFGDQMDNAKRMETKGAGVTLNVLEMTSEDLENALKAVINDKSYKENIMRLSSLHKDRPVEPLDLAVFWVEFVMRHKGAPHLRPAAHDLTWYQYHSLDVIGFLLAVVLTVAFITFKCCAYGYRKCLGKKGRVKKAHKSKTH

[9] = tested on: CYP2B6; assay: Enzyme induction assay, CYP2B6 activity in primary human hepatocytes; details: CYP2B6 bupropion hydroxylation, DPV 303 nM, phenobarbital 1 mM
[10] = target: CYP2C19 (Homo sapiens, UniProt P33261); assay: Enzyme inhibition assay, CYP2C19; details: HLM; CYP2C19 S-mephenytoin 4′-hydroxylation
[11] = tested on: CYP1A2; assay: Enzyme induction assay, CYP1A2 activity in primary human hepatocytes; type: in vitro ADME; details: plated cryopreserved primary human hepatocytes, O-deethylation
[12] = target: T6, UGT1A9 (Homo sapiens, UniProt O60656); assay: Enzyme inhibition assay, UGT1A9; type: in vitro ADME; design: from tissue; details: HLM; UGT1A9 mycophenolic acid glucuronidation
T6 sequence (O60656 26-530): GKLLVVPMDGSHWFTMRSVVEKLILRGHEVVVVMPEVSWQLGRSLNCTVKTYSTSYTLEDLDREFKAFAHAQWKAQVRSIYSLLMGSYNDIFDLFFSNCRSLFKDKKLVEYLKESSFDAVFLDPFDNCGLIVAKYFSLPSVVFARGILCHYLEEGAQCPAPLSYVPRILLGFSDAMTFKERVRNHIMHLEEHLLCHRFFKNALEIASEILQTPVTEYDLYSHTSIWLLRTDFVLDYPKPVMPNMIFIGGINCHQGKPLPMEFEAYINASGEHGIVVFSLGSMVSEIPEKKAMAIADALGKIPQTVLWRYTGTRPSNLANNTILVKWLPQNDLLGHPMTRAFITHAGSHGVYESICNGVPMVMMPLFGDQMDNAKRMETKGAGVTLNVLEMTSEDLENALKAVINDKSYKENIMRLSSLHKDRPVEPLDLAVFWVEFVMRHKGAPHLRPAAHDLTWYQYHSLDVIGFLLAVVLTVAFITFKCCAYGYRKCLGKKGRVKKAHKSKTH

[13] = target: T7, UGT1A7 (Homo sapiens, UniProt Q9HAW7); assay: Enzyme inhibition assay, UGT1A7
T7 sequence (Q9HAW7 26-530): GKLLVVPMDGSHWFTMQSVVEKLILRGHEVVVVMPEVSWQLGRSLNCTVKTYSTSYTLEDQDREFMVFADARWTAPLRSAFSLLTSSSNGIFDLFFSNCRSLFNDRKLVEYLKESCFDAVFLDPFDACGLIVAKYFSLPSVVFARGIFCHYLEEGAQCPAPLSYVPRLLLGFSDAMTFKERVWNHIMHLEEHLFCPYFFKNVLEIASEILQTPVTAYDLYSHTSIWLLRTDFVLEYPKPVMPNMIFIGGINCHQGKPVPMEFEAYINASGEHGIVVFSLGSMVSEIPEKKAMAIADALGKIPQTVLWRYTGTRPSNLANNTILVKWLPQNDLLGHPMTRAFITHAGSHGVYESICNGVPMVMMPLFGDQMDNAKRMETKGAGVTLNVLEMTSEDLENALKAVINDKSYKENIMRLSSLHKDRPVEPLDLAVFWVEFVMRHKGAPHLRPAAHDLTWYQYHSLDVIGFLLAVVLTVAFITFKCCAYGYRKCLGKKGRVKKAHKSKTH

[14] = target: T8, UGT1A8 (Homo sapiens, UniProt Q9HAW9); assay: Enzyme inhibition assay, UGT1A8
T8 sequence (Q9HAW9 26-530): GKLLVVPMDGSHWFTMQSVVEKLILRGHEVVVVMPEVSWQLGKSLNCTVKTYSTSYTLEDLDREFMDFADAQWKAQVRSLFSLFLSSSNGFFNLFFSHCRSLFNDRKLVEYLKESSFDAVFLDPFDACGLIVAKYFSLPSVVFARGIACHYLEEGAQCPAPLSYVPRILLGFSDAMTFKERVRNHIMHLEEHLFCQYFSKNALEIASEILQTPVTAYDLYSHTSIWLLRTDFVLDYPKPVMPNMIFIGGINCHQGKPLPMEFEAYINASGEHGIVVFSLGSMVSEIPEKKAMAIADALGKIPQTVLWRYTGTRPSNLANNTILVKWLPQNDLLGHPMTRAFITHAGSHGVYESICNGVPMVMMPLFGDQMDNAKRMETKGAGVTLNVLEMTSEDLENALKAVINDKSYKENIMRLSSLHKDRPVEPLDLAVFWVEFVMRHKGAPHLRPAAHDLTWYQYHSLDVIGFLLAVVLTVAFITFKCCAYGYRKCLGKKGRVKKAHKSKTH

Sequence of CYP3A4 (P08684 whole entry): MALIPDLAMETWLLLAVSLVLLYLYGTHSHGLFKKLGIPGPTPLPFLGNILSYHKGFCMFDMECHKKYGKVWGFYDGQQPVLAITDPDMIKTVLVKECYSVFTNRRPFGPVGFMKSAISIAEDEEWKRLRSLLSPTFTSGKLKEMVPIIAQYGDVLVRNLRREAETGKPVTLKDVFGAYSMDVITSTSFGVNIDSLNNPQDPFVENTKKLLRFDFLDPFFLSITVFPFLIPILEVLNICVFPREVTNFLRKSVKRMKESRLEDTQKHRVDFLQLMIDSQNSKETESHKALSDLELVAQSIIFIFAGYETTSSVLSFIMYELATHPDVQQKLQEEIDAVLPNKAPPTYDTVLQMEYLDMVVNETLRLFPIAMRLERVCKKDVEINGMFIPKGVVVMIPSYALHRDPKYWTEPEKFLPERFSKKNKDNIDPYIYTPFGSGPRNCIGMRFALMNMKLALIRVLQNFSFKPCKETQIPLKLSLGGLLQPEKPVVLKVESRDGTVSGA
Sequence of CYP2C19 (P33261 whole entry): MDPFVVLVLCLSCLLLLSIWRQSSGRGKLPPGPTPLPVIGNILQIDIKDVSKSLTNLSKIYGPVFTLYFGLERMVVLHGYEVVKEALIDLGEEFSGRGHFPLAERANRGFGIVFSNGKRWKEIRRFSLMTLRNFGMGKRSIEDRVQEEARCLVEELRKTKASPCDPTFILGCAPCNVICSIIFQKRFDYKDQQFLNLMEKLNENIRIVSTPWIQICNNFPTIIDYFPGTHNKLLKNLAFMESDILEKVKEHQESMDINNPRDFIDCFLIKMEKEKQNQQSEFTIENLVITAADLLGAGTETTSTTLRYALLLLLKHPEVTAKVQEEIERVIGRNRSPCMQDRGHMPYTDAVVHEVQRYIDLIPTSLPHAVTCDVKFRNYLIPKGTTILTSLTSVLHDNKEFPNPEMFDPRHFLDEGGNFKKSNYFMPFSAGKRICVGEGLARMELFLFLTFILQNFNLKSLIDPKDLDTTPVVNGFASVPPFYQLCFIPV

With `Cc1nc2c([nH]1)c(=O)n(C)c(=O)n2Cc1ccco1` [Furafylline] the IC50 [1] was 4.76 µM.
With `CCc1c2c(nc3ccc(O)cc13)-c1cc3c(c(=O)n1C2)COC(=O)[C@]3(O)CC` [SN38] the “Known Substrate (% Remaining at 60 min)” value [2] was “SN38 (74.87) %”.
Compound `C[C@@H]1CC[C@@]2(OC1)O[C@H]1C[C@H]3[C@@H]4CC[C@H]5C[C@@H](O)CC[C@]5(C)[C@H]4CC(=O)[C@]3(C)[C@H]1[C@@H]2C` [Hecogenin] has an IC50 [3] of 960 nM.
Compound `Cc1ncc2n1-c1ccc(Cl)cc1C(c1ccccc1F)=NC2` [Midazolam] has a remaining at 1 h [4] of 0% and a remaining at 1 h, 1 µM [5] of 4.02%.
With `OC(Cn1cncn1)(Cn1cncn1)c1ccc(F)cc1F` [Fluconazole] the IC50 [6] was 712 µM.
For `C[C@H](CCC(=O)O)[C@H]1CC[C@H]2[C@@H]3[C@H](O)C[C@@H]4C[C@H](O)CC[C@]4(C)[C@H]3CC[C@]12C` [Chenodeoxycholic acid], the remaining at 1 h, 2 µM [7] was 59.4%.
For `COC(=O)N[C@H](C(=O)N[C@@H](Cc1ccccc1)[C@@H](O)CN(Cc1ccc(-c2ccccn2)cc1)NC(=O)[C@@H](NC(=O)OC)C(C)(C)C)C(C)(C)C` [Atazanavir], the IC50 [8] was 110 nM.
In the case of `CCC1(c2ccccc2)C(=O)NC(=O)NC1=O` [Phenobarbital], the fold induction at 72 h, 303 nM ([9]; donor HU2036, over negative control) is reported as 7.63 ± 0.82, the fold induction at 72 h, 303 nM ([9]; donor HU2068, over negative control) is reported as 6.43 ± 1.02 and the fold induction at 72 h, 303 nM ([9]; donor HU8373, over negative control) is reported as 10.7 ± 0.61.
With `CCC1(c2ccccc2)C(=O)NC(=O)N(Cc2ccccc2)C1=O` (single isomer, unassigned; (-)) [(-)-N-3-benzyl-phenobarbital] the IC50 [10] was 148 nM.
Compound `COc1ccc2[nH]c([S+]([O-])Cc3ncc(C)c(OC)c3C)nc2c1` (stereo not drawn) [Omeprazole] has a fold induction at 72 h, 303 nM ([11]; donor HU2036, probe phenacetin (100 µM)) of 14 ± 2.43, a fold induction at 72 h, 303 nM ([11]; donor HU2068, probe phenacetin (100 µM)) of 35.5 ± 2.03 and a fold induction at 72 h, 303 nM ([11]; donor HU8373, probe phenacetin (100 µM)) of 32.7 ± 6.67.
Compound `O=C(O)c1cccnc1Nc1cccc(C(F)(F)F)c1` [Niflumic acid] has an IC50 [12] of 150 nM.
For `O=c1cc(-c2ccc(O)c(-c3c(O)cc(O)c4c(=O)cc(-c5ccc(O)cc5)oc34)c2)oc2cc(O)cc(O)c12` [Amentoflavone], the IC50 [13] was 46.1 nM and the IC50 [14] was 5.57 µM.
